Experimental data published in PMC10709007, “GPR162 is a beta cell CART receptor” (iScience, 2023).
Entries after “also recorded” stand apart in the source; their conditions may differ. *1 amine or outer side, *2 acyl side, *3 side chain or, on linkers, in order; H or OH if unused. Where a SMILES comes first, the peptide text is derived from it. Bridges are numbered along the chain shown (N, C = ends). Roman numbers before positions name the chains, in order. Where no end group is shown, it is not given here. [ ]: non-standard residue; d: D form. Actinocin(9to1) = Cc1c2oc3c(C)ccc(C(=O)[*:1])c3nc-2c(C(=O)[*:2])c(N)c1=O; NMeV = CN[C@H](C(=O)O)C(C)C; Sar = CNCC(=O)O

Experiments:
[1] = test system: Gpr162 mRNA; parameters: method as in PMID 24937127; conditions: streptozotocin-treated rats; cited from earlier work
[2] = test system: PC12 cells; parameters: method as in PMID 21855138; conditions: cited from earlier work
Excerpt: However, much earlier, a fragment of the CART peptide was identified in extracts of sheep hypothalamus.[2] CART was later found to be expressed also in pancreatic islet cells and in nerve fibers innervating the islets.[3]^,[4]^,[5] […] Among them is the effect of CART on islet hormone secretion fr ...

[3] = test system: KATO III cells; conditions: KATOIII cells; cited from earlier work
Excerpt: When studying neuropathic pain, Yosten et al.[11] found GPR160 to be necessary for CARTp-mediated cell activation in cell culture. […] Information on GPR160 is scarce, but it has been reported to be a potential marker for prostate cancer,[24] where it is involved in apoptosis and cell-cycle arrest.[25] […] Recently, the notion of GPR160 being the ...

[4] = test system: CART receptor; conditions: cited from earlier work
Excerpt: However, much earlier, a fragment of the CART peptide was identified in extracts of sheep hypothalamus.[2] CART was later found to be expressed also in pancreatic islet cells and in nerve fibers innervating the islets.[3]^,[4]^,[5] […] Since then, multiple biological effects of CART have been established.[4]^,[7] Among them is the effect of CART on islet hormone secretion fr ...

[5] = test system: INS-1 832/13 cells; assay: Radioactive binding of 125I-CARTp55-102 to INS-1 832/13 cells; parameters: species or system rat
Protocol: ^125I was incorporated into the meta-position of tyrosine side chains of CARTp55-102 using oxidative iodination. 20 μL of a 300 mM phosphate buffer (pH 7.4) was used to resuspend 1 nmol of the CARTp55-102 peptide, after which 0.4 mCi ^125I (NEZ033A, PerkinElmer, Waltham, MA) was added. A volume of 30 μL 3 mg/mL Chloramine-T in phosphate buffer was added gradually while stirring over 6 min, and the reaction was quenched by adding 400 μL H2O with 0.1% trifluoroacetic acid (TFA). The radiolabeled peptide was purified by reversed-phase HPLC on a C18 column and […]. Elution fractions of 1 mL were collected and it was determined where the radiolabeled peptide eluted by measuring γ radiation intensity on a PerkinElmer 2470 Automatic Gamma Counter (PerkinElmer).
INS-1 cells were seeded to 24-well plates and transfected with Gpr162 siRNA (or control siRNA). Two days after transfection cells were assayed for competition binding for 3 h at 4°C using 10–15 p.m. ^125I CARTp55-102 or unlabeled CARTp55-102 in 0.4 mL of 50 mM HEPES buffer (pH7.4 supplemented with 1 mM CaCl2, 5 mM MgCl2 and 0.5% (w/v) bovine serum albumin). After incubation cells were washed two times in binding buffer supplemented with 0.5 M NaCl at 4°C. Non-specific binding was determined as the binding in the presence of 0.1μM unlabeled CARTp55-102.

In the case of `CN(N=O)C(=O)N[C@H]1C(O)O[C@H](CO)[C@@H](O)[C@@H]1O` (mixture of isomers) [streptozotocin], the “Gpr162 mRNA expression, brain” value [1] is given as “increased” and the “Gpr162 mRNA expression, right ventricle of the heart and kidney” value [1] is given as “reduced Gpr162 mRNA expression”.

In the case of `Cc1c2oc3c(C)ccc(C(=O)N[C@@H]4C(=O)N[C@H](C(C)C)C(=O)N5CCC[C@H]5C(=O)N(C)CC(=O)N(C)[C@@H](C(C)C)C(=O)O[C@@H]4C)c3nc-2c(C(=O)N[C@@H]2C(=O)N[C@H](C(C)C)C(=O)N3CCC[C@H]3C(=O)N(C)CC(=O)N(C)[C@@H](C(C)C)C(=O)O[C@@H]2C)c(N)c1=O` [actinomycin D] (I: T[dV]P[Sar][NMeV] / II: T[dV]P[Sar][NMeV]; ester I:1-I:C, II:1-II:C; linker I:N-II:N via Actinocin(9to1)), the “Effect on (radiolabeled) CART binding” value [2] is listed as “inhibited”.

For `C[C@@H]1C[C@@H]([C@H](O)CC2CC(=O)NC(=O)C2)C(=O)[C@@H](C)C1` [cycloheximide], the “Effect on (radiolabeled) CART binding” value [2] is given as “inhibited”.

For C-peptide, the “Effect of GPR160 on C-peptide-induced cFOS expression” value [3] is listed as “GPR160 has no effect on C-peptide-induced cFOS expression”.

In the case of “PACAP6-38: CART receptor antagonist (FTDSYSRYRKQMAVKKYLAAVLGKRYKQRVKNK; ends and bridges not checked; UniProt P18509 137-169, looked up, fragment)”, the CART receptor antagonism [4] is listed as “acts as a CART receptor antagonist”.

In the case of “^125I-CARTp55-102: ^125I was incorporated into the meta-position of tyrosine side chains of CARTp55-102 using oxidative iodination (IPIYEKKYGQVPMCDAGEQCAVRKGARIGKLCDCPRGTSCNSFLLKCL; ends and bridges not checked; also: 125I in meta-position of tyrosine side chains)”, the “Binding of 125I-CARTp55-102 after Gpr162 siRNA/KD” value ([5]; Gpr162 KD vs negative control, 3 h at 4°C, 2 days after transfection, n = 3, p < 0.05) is reported as “binds to a lower extent to Gpr162 KD INS-1 832/13 cells; also recorded: the degree of binding was lower in cells treated with Gpr162 siRNA” and the “Binding of 125I-CARTp55-102 to cells” value ([5]; competition binding 3 h at 4°C, 50 mM HEPES pH7.4, non-specific with 0.1μM unlabeled CARTp55-102, n = 3) is reported as “binds to INS-1 832/13 cells”.

In the case of pertussis toxin, the “CARTp-mediated phosphorylation of ERK” value [4] is given as “inhibited”.

In the case of “radiolabeled CART peptide: radiolabeled CART of cited earlier studies in AtT20 and PC12 cells (IPIYEKKYGQVPMCDAGEQCAVRKGARIGKLCDCPRGTSCNSFLLKCL; ends and bridges not checked; also: 125I in meta-position of tyrosine side chains)”, the “Specific binding in PC12 cells” value [2] is given as “high-affinity-specific binding in PC12 cells”.
